Measured values: ChEMBL document CHEMBL3046858, “Synthesis and fungicidal activities of novel indene-substituted oxime ether strobilurins” (2008)

Assays:
Format in all cases: functional
Parameters in all cases: dose or concentration left out as unconfirmed
[1] = system: Pseudoperonospora cubensis; assay: Fungicidal activity against Pseudoperonospora cubensis grown on compound pre-treated cucumber leaves assessed as inhibition of fungal growth at 6.25 mg/ml measured 5 days post compound treatment
Colletotrichum lagenaria = assay: Fungicidal activity against Colletotrichum lagenaria infected in compound pre-treated cucumber plants assessed as inhibition of fungal growth at 6.25 mg/ml measured 3 days post compound treatment
Pyricularia oryzae = assay: Fungicidal activity against Magnaporthe oryzae assessed as inhibition of mycelial growth at 25 mg/ml measured after 48 hr
Phytophthora infestans = assay: Fungicidal activity against Phytophthora infestans assessed as inhibition of mycelial growth at 25 mg/ml measured after 48 hr
Botrytis cinerea = assay: Fungicidal activity against Botryotinia fuckeliana assessed as inhibition of mycelial growth at 25 mg/ml measured after 48 hr
Blumeria graminis = assay: Fungicidal activity against Blumeria graminis grown on compound pre-treated wheat seedlings assessed as inhibition of fungal growth at 6.25 mg/ml measured 7 days post fungal inoculation

Row | SMILES | inhibition [1] [%] | inhibition (Colletotrichum lagenaria) [%] | inhibition (Pyricularia oryzae) [%] | inhibition (Phytophthora infestans) [%] | inhibition (Botrytis cinerea) [%] | inhibition (Blumeria graminis) [%]
1 | CNC(=O)/C(=N/OC)c1ccccc1CO/N=C(\C)C1=Cc2ccccc2C1 | 95 | 95 | 100 | 100 | 100 | 100
2 | CNC(=O)/C(=N/OC)c1ccccc1CO/N=C(\C)C1=Cc2ccc(Cl)cc2C1 | 85 | 100 | 100 | 100 | 100 | 100
3 | CNC(=O)/C(=N/OC)c1ccccc1CO/N=C(\C)C1=Cc2ccc(F)cc2C1 | 100 | 100 | 100 | 100 | 80 | 100
4 | CNC(=O)/C(=N/OC)c1ccccc1CO/N=C(\C)C1=Cc2ccc(C)cc2C1 | 100 | 100 | 100 | 100 | 100 | 100
5 | CNC(=O)/C(=N/OC)c1ccccc1CO/N=C(\C)C1=Cc2cc(Cl)ccc2C1 | 90 | 98 | 80 | 80 | 100 | 100
6 | CNC(=O)/C(=N/OC)c1ccccc1CO/N=C(\C)C1=Cc2cc(F)ccc2C1 | 30 | 30 | 100 | 80 | 80 | 100
7 | CNC(=O)/C(=N/OC)c1ccccc1CO/N=C(\C)C1=Cc2c(Cl)cccc2C1 | 100 | 80 | 100 | 100 | 80 | 100
8 | CO/C=C(/C(=O)OC)c1ccccc1CO/N=C(C)/C=C/c1ccc(Cl)cc1 | 100 | 50 | 100 | – | 80 | 62.5
9 | CO/C=C(/C(=O)OC)c1ccccc1CO/N=C(\C)C1=Cc2ccc(Cl)cc2C1 | 40 | 60 | 50 | 100 | 80 | 100
10 | CO/C=C(/C(=O)OC)c1ccccc1CO/N=C(\C)C1=Cc2ccc(F)cc2C1 | – | 60 | 100 | 100 | 50 | 100
11 | CO/C=C(/C(=O)OC)c1ccccc1CO/N=C(\C)C1=Cc2ccc(C)cc2C1 | 80 | 70 | 100 | 100 | 80 | 100
12 | CO/C=C(/C(=O)OC)c1ccccc1CO/N=C(\C)C1=Cc2cc(Cl)ccc2C1 | 30 | 30 | 100 | 100 | 80 | 100
13 | CO/C=C(/C(=O)OC)c1ccccc1CO/N=C(\C)C1=Cc2c(Cl)cccc2C1 | 0 | 30 | 100 | 100 | 80 | 85
14 | CO/N=C(/C(=O)OC)c1ccccc1CO/N=C(\C)C1=Cc2ccccc2C1 | 30 | 30 | 100 | 100 | 80 | 10
15 | CO/N=C(/C(=O)OC)c1ccccc1CO/N=C(\C)C1=Cc2ccc(Cl)cc2C1 | 50 | 65 | 100 | 100 | 80 | 90
16 | CO/N=C(/C(=O)OC)c1ccccc1CO/N=C(\C)C1=Cc2ccc(F)cc2C1 | 85 | 40 | 100 | 100 | 50 | 85
17 | CO/N=C(/C(=O)OC)c1ccccc1CO/N=C(\C)C1=Cc2ccc(C)cc2C1 | 100 | 90 | 100 | 100 | 80 | 100
18 | CO/N=C(/C(=O)OC)c1ccccc1CO/N=C(\C)C1=Cc2cc(Cl)ccc2C1 | 95 | 90 | 100 | 100 | 80 | 95
19 | CO/N=C(/C(=O)OC)c1ccccc1CO/N=C(\C)C1=Cc2cc(F)ccc2C1 | 70 | 40 | 50 | 100 | 80 | 100
20 | CO/N=C(/C(=O)OC)c1ccccc1CO/N=C(\C)C1=Cc2c(Cl)cccc2C1 | 90 | 100 | 100 | 100 | 100 | 100
21 | CO/N=C(\C(=O)OC)c1ccccc1CO/N=C(\C)c1cccc(C(F)(F)F)c1 | 50 | 60 | 100 | – | 100 | 100
22 | CO/N=C(/C(=O)OC)c1ccccc1COc1ccccc1C [KRESOXIM-METHYL] | 0 | 30 | 100 | – | 100 | 100
